For series [1], the target named is T1, PPARα (Homo sapiens, UniProt Q07869).
T1 sequence (Q07869 167-468 limits assumed): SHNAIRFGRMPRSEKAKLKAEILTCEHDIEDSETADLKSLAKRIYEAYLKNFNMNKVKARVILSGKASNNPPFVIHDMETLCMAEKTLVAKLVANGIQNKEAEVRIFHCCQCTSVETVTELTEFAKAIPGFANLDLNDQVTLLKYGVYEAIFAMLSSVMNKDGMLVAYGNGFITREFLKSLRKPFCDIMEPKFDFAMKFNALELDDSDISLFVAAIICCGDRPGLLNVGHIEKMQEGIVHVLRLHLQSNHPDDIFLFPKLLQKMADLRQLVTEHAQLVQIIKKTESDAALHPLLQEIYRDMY
Kind of series: Luciferase transcriptional reporter gene assay, pFA-PPARα-LBD in BHK21 cells. It is filed as cell-based. Further details: expressed in transfected cells; host or cells: BHK21 (ATCC CCL10). To be noted: Gal4-PPARα-LBD. The source says: (§1) Full-length cDNA clones for human PPARα and mouse PPARγ were obtained by RT-PCR from human adipose and mouse liver cRNA, respectively, cloned into plasmid vectors and verified by DNA sequencing. […] To accomplish this, the portions of the cloned sequences encoding the LBDs were amplified from the full-length clones by PCR and then subcloned into the plasmid vectors pGEX4T-2(Pharmacia) and pFA-CMV(Stratagene). Final clones were verified by DNA sequence analysis.
(§2) Baby hamster kidney cells (BHK21 ATCC CCL10) were grown in DMEM medium containing 10% FBS at 37° C. in a […]:5% CO2 atmosphere. Cells were seeded in 6 well plates at a density of 10^5 Cells/well and then batch-transfected with either the pFA-PPARγ-LBD or pFA-PPARα-LBD expression plasmids plus the pFR-luc reporter plasmid (Stratagene) and an expression plasmid encoding the secretable form of alkaline phosphatase (SEAP) as a normalization control. […] Six hours following transfection, the cells were harvested by trypsinization and seeded in 96 well plates at a density of 10^4 cells/well. After 24 hours to allow attachment of cells, the medium was removed and replaced with 100 ul of phenol red-free medium containing the test substances or control ligands (final. 0.1% DMSO). Following incubation of the cells for 24 hours with substances, 50 ul of the supernatant was recovered and analyzed for SEAP activity (Roche Molecular Biochemicals). The remainder of the supernatant was discarded, 50 ul PBS was added per well followed by one volume of Luciferase Constant-Light Reagent (Roche Molecular Biochemicals) to lyse the cells and initiate the luciferase reaction. Luminescence for both SEAP and luciferase was measured in a Packard TopCount. Luciferase activity was normalized to the SEAP control and transcriptional activation in the presence of a test substance was expressed as fold-activation over cells incubated in the absence of the substance. EC50 values were calculated using the XLfit program (ID Business Solutions Ltd. UK).

For series [2], the target named is T2, PPARγ (Mus musculus, UniProt P37238).
T2 construct: expressed in transfected cells; host or cells: BHK21 (ATCC CCL10)
T2 sequence (P37238 204-505): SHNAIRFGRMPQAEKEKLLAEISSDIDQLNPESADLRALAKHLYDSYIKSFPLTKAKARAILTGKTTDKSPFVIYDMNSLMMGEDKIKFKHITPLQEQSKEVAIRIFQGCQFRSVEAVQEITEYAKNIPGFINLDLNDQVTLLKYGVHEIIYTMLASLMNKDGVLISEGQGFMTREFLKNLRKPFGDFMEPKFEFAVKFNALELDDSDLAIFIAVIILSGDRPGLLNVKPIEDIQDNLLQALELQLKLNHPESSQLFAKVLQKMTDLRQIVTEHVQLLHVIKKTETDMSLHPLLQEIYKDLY
Kind of series: Luciferase transcriptional reporter gene assay, pFA-PPARγ-LBD in BHK21 cells. It is filed as cell-based. To be noted: Gal4-PPARγ-LBD.
Source text: as §1, §2
For orientation: Reporter assays use an easily measured gene product as a stand-in for the process of interest.

Series [3] addresses T3, PPARγ (Mus musculus, UniProt P37238).
T3 construct: made in house; host or cells: E. coli BL21(pLysS)
T3 sequence (P37238 174-475 isoform P37238-2): T2 sequence (P37238 204-505)
Kind of series: Radioligand binding assay, PPARγ receptor binding (GST-PPARγ-LBD fusion protein, SPA). The following applies: scintillation proximity.
Source text: as §1
(§3) Induction, expression, and purification of GST-LBD fusion proteins were performed in E. coli strain BL21(pLysS) cells by standard methods (Ref: Current Protocols in Molecular Biology, Wiley Press, edited by Ausubel et al.).
PPARγ receptor binding was assayed in TKE50 (50 mM Tris-HCl, pH 8, 50 mM KCl, 2 mM EDTA, 0.1 mg/ml fatty acid-free BSA and 10 mM DTT). For each 96 well reaction an 140 ng equivalent of GST-PPARγ-LBD fusion protein was bound to 10 ug SPA beads (PharmaciaAmersham) in a final volume of 50 ul by shaking. The resulting slurry was incubated for 1 h at RT and centrifuged for 2 min at 1300 g. The supernatant containing unbound protein was removed and the semidry pellet containing the recptor-coated beads was resolved in 50 ul of TKE. For radioligand binding e.g. 10000 dpm 2(S)-(2-benzoyl-phenylamino)-3-{4-[1,1-ditritio-2-(5-methyl-2-phenyl-oxazol-4-yl)-ethoxy]-phenyl}-propionic acid in 50 ul were added, the reaction incubated at RT for 1 h and scintillation proximity counting performed. All binding assays were performed in 96 well plates and the amount of bound ligand measured on a Packard TopCount using OptiPlates (Packard). Nonspecific binding was determined in the presence of 10^−4 M unlabelled compound. Dose response curves were done in triplicates within a range of concentration from 10^−10 M to 10^−4 M.
A general note: In a scintillation proximity assay essentially only radioactivity close to the scintillant gives light.

In series [4] the target is T1, PPARα. Briefly: Radioligand binding assay, PPARα receptor binding (GST-PPARα-LBD fusion protein).
Source text: as §1, §3
PPARα receptor binding was assayed in TKE10 (10 mM Tris-HCl, pH 8, 50 mM KCl, 2 mM EDTA, 0.1 mg/ml fatty acid free BSA and 10 mM DTT). […]
PPARγ receptor binding was assayed in TKE50 (50 mM Tris-HCl, pH 8, 50 mM KCl, 2 mM EDTA, 0.1 mg/ml fatty acid-free BSA and 10 mM DTT). […] All binding assays were performed in 96 well plates and the amount of bound ligand measured on a Packard TopCount using OptiPlates (Packard). Nonspecific binding was determined in the presence of 10^−4 M unlabelled compound. […]

The record followed here is patent publication US6642389B2, “Oxazole derivatives” (Hoffmann-La Roche Inc., priority 2001, dated 2003).

For orientation: EC50 means the concentration that produces a half-maximal response. Higher therefore signals a need for much substance. The term IC50 denotes the concentration needed to halve the response being measured. On to `COC(Cc1ccc(OCCCc2nc(-c3ccc(Cl)cc3)oc2C)c2ccsc12)C(=O)O` (racemic) [Example 48, [rac]-3-(4-{3-[2-(4-Chloro-phenyl)-5-methyl-oxazol-4-yl]-propoxy}-benzo[b]thiophen-7-yl)-2-methoxy-propionic acid], for which the figures for the EC50 at PPARα [1] and on PPARγ [2] were 8 nM and 464 nM, respectively. Also, the 50% inhibitory concentration (IC50) at PPARγ [3] is 3170 nM.

With `C/C(=C/C(=O)c1ccc(C(F)(F)F)cc1)NC(Cc1ccc(OCCc2nc(-c3ccccc3)oc2C)c2ccsc12)C(=O)O` (racemic) [Example 106, [rac]-2-[1-Methyl-3-oxo-3-(4-trifluoromethyl-phenyl)-(Z)-propenylamino]-3-{4-[2-(5-methyl-2-phenyl-oxazol-4-yl)-ethoxy]-benzo[b]thiophen-7-yl}-propionic acid], the results for the concentration giving a half-maximal response (EC50) on PPARα [1] and at PPARγ [2] were 138 nM and 501 nM, respectively. Further, the half-inhibitory concentration (IC50) at PPARα [4] turned out to be 259 nM; at PPARγ [3], 112 nM.

A word on the melting point: it is the temperature, or range, at which the solid turns liquid. `CCCCOC(Cc1ccc(OCCc2nc(-c3ccccc3)oc2C)c2ccsc12)C(=O)O` (stereo not shown) [Example 4, 2-Butoxy-3-{4-[2-(5-methyl-2-phenyl-oxazol-4-yl)-ethoxy]-benzo[b]thiophen-7-yl}-propionic acid]: the melting point was 123 °C (dec.).

For the compound `CCCCOC(Cc1ccc(OCCc2nc(-c3ccccc3)oc2C)c2ccccc12)C(=O)O` (stereo not shown) [Example 10, 2-Butoxy-3-{4-[2-(5-methyl-2-phenyl-oxazol-4-yl)-ethoxy]-naphthalen-1-yl}-propionic acid], the melting point is 88 to 90 °C (dec.).

Regarding `CCO/C(=C\c1ccc(OCCc2nc(-c3ccccc3)oc2C)c2ccoc12)C(=O)O` [Example 83, 2Z-Ethoxy-3-{4-[2-(5-methyl-2-phenyl-oxazol-4-yl)-ethoxy]-benzofuran-7-yl}-acrylic acid], the EC50 on PPARα [1] is 746 nM; on PPARγ [2], 188 nM. Further, the IC50 on PPARα [4] is 109 nM; at PPARγ [3] it was 25 nM.
